{"source": "patent US11912699B2", "about": "“Tau-protein targeting compounds and associated” (Arvinas Operations, Inc., priority 2019, dated 2024)", "key": {"[1]": {"target": "T1, pathologic tau (Homo sapiens, UniProt P10636, P618L)", "T1 construct": "tissue Taconic; host or cells: cortex / hippocampus of Tg2508 transgenic mice, sarkosyl-insoluble fraction or brain extract", "T1 sequence (P10636 1-383 isoform P10636-6 P243L)": "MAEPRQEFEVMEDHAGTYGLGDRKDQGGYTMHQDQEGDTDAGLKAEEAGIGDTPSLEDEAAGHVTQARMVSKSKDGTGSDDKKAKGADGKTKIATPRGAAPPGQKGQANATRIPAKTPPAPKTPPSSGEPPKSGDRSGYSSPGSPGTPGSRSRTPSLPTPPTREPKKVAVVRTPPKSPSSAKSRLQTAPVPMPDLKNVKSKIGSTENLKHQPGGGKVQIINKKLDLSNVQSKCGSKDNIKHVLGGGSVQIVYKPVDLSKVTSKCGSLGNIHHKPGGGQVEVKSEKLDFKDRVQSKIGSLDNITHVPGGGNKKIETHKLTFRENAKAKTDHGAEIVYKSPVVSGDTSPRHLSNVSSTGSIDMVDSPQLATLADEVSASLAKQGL", "experiment": "Pathologic tau in Tg2508 brain after intravenous dosing, measured by Wes capillary gel electrophoresis", "assay_type": "in vivo, Tg2508 tauopathy mice", "details": "15, 3, 1 or 0.3 mpk intravenous, 24 hours post dose, Tg2508 hippocampi", "procedure": "(§1) FIGS. 3A and 3B. Exemplary bifunctional compounds degrade greater than 95% of pathologic tau in Tg2508 brain following parenteral administration in vivo. Tg2508 tauopathy mice were dosed (12 animals per group) with either 15 mpk exemplary compound 82 or 30 mpk exemplary compound 382 or vehicle intravenously. Twenty-four hours post dose, the animals were sacrificed, and cortical brain samples were analyzed for pathologic tau by Wes capillary gel electrophoresis. FIG. 3A is a graphical representation of the averaged analysis of pathologic tau shown for each animal tested comparing lanes from the vehicle control to either exemplary compound 82 or exemplary compound 382 as indicated in FIG. 3B. Greater than 95% reduction of pathologic tau was observed following treatment of the Tg2508 animals with either exemplary compound 82 or exemplary compound 382.\nFIG. 5. […] Tg2508 animals were dosed with either 15, 3, 1 or 0.3 mpk of bifunctional compound 382 intravenously, as described in materials and methods. Hippocampal extracts were analyzed for either pathologic tau levels by Wes or bifunctional compound levels at each given dose as shown."}, "[2]": {"system": "seeding competent tau species (MC1-positive seeded conformational tau) in ChoK1-Tau P301L cells", "experiment": "Tg2508 ex-vivo seeding of P301L CHO cells, MC1 high content image analysis", "assay_type": "cell-based, Tg2508 mice", "details": "single parenteral treatment 30 mpk, 24 hours", "procedure": "FIGS. 4A, 4B, and 4C. […] Briefly, ChoK1-Tau P301L cells were treated with K18 tau preformed fibrils (PFFs) or extracts from Tg2508 brain samples. Seeded conformational tau species were detected by MC1 antibody positivity and quantified as MC1 spot average intensity per cell on the Image Express high content platform."}, "[3]": {"target": "T2, Tau P301L (Homo sapiens, UniProt P10636, P618L)", "T2 construct": "expressed in transfected cells", "T2 sequence (P10636 1-441 isoform P10636-8 P301L)": "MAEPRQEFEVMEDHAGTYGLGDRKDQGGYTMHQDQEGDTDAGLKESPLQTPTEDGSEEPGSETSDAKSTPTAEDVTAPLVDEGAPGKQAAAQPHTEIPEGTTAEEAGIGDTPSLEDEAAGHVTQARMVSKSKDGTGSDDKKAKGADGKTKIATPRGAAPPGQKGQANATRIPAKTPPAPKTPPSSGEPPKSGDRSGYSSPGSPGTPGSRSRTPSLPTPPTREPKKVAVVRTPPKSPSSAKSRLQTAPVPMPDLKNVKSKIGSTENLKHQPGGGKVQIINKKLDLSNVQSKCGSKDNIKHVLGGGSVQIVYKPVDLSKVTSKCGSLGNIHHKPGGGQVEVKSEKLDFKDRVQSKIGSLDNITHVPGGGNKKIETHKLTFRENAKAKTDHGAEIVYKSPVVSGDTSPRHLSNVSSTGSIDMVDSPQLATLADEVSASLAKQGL", "experiment": "In vitro tau degradation assay in CHOK1 Tau P301L cells (sarkosyl insoluble tau, WES)", "assay_type": "cell-based", "details": "CHO-K1; remaining tau protein in sarkosyl insoluble pellet; CHOK1 Tau P301L cells treated 48 hours with test compound at 1 μM, doxycycline removed for the last 24 hours; relative to DMSO doxycycline control; read-out: Tau Protein Degradation effect at 1 μM", "outline": "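T-Rex CHOK1 clone D1 with doxycycline-inducible (1 μg/ml) Tau P301L treated 48 h with compound at 1 μM, doxycycline removed for the final 24 h. Sarkosyl-insoluble tau quantified by WES capillary electrophoresis with Tau1 antibody, expressed relative to DMSO doxycycline control and binned as ≤50% or >50% remaining.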"}, "[4]": {"target": "T1, pathologic tau", "experiment": "In vivo tau degradation assay in Tg2508 tauopathy mice (sarkosyl insoluble tau, Wes)", "details": "Tg2508 mice, 15, 3, 1 or 0.3 mpk parenterally, 24 hours post dose", "procedure": "as §1, with “3B.” for “3B. Exemplary bifunctional compounds degrade greater than 95% of pathologic tau in Tg2508 brain following parenteral administration in vivo.”, “parenterally, as described below (Lewis et al., 2000).” for “intravenously.”, “sacrificed” for “sacrificed,”\nFIG. 5. Tg2508 animals were dosed with either 15, 3, 1 or 0.3 mpk of bifunctional compound exemplary compound 382 parenterally, as described in materials and methods. Hippocampal extracts were analyzed for either pathologic tau levels by Wes or bifunctional compound levels at each given dose as shown.\nIn vivo tau Degradation Assay for FIGS. 3A, 3B and 5. […] Hetero-bifunctional degrader molecule concentrations were determined using standand liquid chromatography and mass spectroscopy methodologies (Drumetix)."}, "[5]": {"target": "T3, seeded conformational tau (MC1) (Homo sapiens, UniProt P10636, P618L)", "T3 construct": "tissue Taconic; host or cells: cortex / hippocampus of Tg2508 transgenic mice, sarkosyl-insoluble fraction or brain extract", "T3 sequence (P10636 1-383 isoform P10636-6 P243L)": "as the sequence (P10636 1-383 isoform P10636-6 P243L) above", "experiment": "Tg2508 ex-vivo tau seeding assay in ChoK1-Tau P301L cells (MC1 high content imaging)", "assay_type": "cell-based, mice", "details": "single parenteral treatment 30 mpk, 24 hours; MC1 spot intensity in ChoK1-Tau P301L cells", "procedure": "FIGS. 4A, 4B, and 4C. Briefly, ChoK1-Tau P301L cells were treated with K18 tau preformed fibrils (PFFs) or extracts from Tg2508 brain samples (as described in Materials and Methods; PFF generation modified from Holmes et al. PNAS. 2014. Proteopathic tau seeding predicts tauopathy in vivo. Oct. 111 (41) E4376-85). Seeded conformational tau species are detected by MC1 antibody positivity and quantified as MC1 spot average intensity per cell on the Image Express™ high content platform.\nIn vitro tau Seeding Assay for FIGS. 4A, 4B, and 4C. Tau P301L T-Rex CHO Cells were plated on BioCoat Collagen 96 well microplates that were also poly-D-lysine coated. Media was removed, cells were washed with DPBS, trypsinized and plated at 50,000 cells per mL with Doxycycline […] and no doxycycline control for 24 hours. […]"}}, "data": [{"smiles": "Cn1c2ccncc2c2ccc(-c3ccc(N4CC(OC5CCN(CCCCCOc6ccc7c(c6)C(=O)N(C6CCC(=O)NC6=O)C7=O)CC5)C4)nc3)cc21", "note": "(centres unmarked) [Compound 382, 2-(2,6-dioxopiperidin-3-yl)-5-((5-(4-((1-(5-(5-methyl-5H-pyrido[4,3-b]indol-7-yl)pyridin-2-yl)azetidin-3-yl)oxy)piperidin-1-yl)pentyl)oxy) isoindoline-1,3-dione]", "values": [{"measurement": "pathologic tau levels in hippocampal extracts", "setting": "[1]", "result": "A clear dose-response relationship is demonstrated"}, {"measurement": "seeding competent tau species in Tg2508 cortical brain extracts (MC1 spot average intensity per cell)", "setting": "[2]", "result": "effectively degraded"}, {"measurement": "remaining activity at 1 µM", "setting": "[3]", "result": "< 50", "unit": "%"}, {"measurement": "concentration of tau protein in hippocampi", "setting": "[4]", "result": "dose-dependently reduced"}, {"measurement": "seeding competent tau species in Tg2508 cortical brain extracts", "setting": "[5]", "result": "effectively degraded"}]}]}
